Measurements taken from patent publication US20240294522A1 (Lead Discovery Center GmbH, priority 2021, published 2024).

Tests used:
GRK2 = target: T1, GRK2 (Homo sapiens, UniProt P25098); assay: Lance Kinase Activity Assay, GRK2; conditions: biochemical Lance kinase activity assay; class symbols A-F; read-out: GRK2 LANCE Assay (IC-50)
T1 construct: purchased Thermo Scientific
T1 sequence (P25098 1-689): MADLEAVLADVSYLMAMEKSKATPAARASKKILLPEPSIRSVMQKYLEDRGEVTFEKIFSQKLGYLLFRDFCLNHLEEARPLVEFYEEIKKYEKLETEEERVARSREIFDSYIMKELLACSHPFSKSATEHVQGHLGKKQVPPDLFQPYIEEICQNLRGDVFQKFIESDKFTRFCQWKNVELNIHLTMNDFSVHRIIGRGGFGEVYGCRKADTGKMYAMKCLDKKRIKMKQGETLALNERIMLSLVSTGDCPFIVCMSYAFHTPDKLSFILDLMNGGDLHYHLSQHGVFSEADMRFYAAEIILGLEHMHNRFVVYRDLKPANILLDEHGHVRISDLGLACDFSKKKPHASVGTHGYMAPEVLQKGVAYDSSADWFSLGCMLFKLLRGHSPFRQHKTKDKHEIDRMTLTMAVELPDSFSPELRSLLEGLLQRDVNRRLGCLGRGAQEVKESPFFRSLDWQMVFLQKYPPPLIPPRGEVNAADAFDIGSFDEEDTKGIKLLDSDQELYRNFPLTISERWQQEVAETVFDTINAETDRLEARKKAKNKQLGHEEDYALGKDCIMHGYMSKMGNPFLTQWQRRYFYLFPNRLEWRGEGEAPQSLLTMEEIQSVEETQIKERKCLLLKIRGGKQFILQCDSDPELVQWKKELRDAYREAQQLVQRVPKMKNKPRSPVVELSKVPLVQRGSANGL
Protocol: (§1) This protocol describes how the Lance Kinase Activity Assay was performed to determine IC50 values of compounds of general formula (I) against GRK5 and GRK2.
(§2) The principle behind this enzymatic assay is based upon the phosphorylation of the Ulight-peptide substrate. It is detected by using a specific EU-labeled anti-phospho peptide antibody. The binding of the Eu labeled anti-phospho peptide antibody to the phosphorylated ULight labeled peptide gives rise to a FRET-signal. Binding of an inhibitor to the kinase prevents phosphorylation of the Ulight-substrate, resulting in a loss of FRET. In tables 2 and 3 the relevant information for these two LANCE assays is summarized.
(§3) For every sample, 2 μl of assay buffer (50 mM HEPES pH 7,5, 10 mM MgCL2, 1 mM EGTA 0,01% Tween 20, 1% DMSO, 2 mM DTT) were transferred into a suitable assay plate (e.g. Corning #3673). Compounds were added in a concentration range from 10 μM to 0.0025 μM using an acoustic dispenser (Echo520 from Labcycte, San Jose, USA) equipped with Echo Dose Response software. After that 6 μl of kinase-substrate mix was added. Reaction was started by addition of 2 μl ATP working solution and mixed using a Bioshake 5000 microplate shaker (Q Instruments, Jena, Germany).
(§4) After 1 h incubation at room temperature the reaction was stopped with 10 μl detection mix containing the Eu-labeled phosphospecific antibody and 10 mM EDTA. After a second incubation period of 1 h at room temperature the FRET signal was measured at 340 nm excitation, 665 nm and 615 nm emission (for the ULight-substrate and Eu-AB, respectively) with an Envision microplate reader (Perkin Elmer, Waltham, MA, USA) with 50 μs delay and 300 μs integration time. IC50 values were determined from the sigmoidal dose response curves with the software Quattro Workflow (Quattro GmbH, Munich, Germany).
(§5) Inhibition is indicated as IC50 [nM] (“−”=not measured). Compounds having an activity designated as “A” provided an IC50≤50 nM; compounds having an activity designated as “B” provided an 50 nM<IC50≤100 nM; compounds having an activity designated as “C” provided an 100 nM<IC50≤500 nM; compounds having an activity designated as “D” provided an 500 nM<IC50≤1000 nM; compounds having an activity designated as “E” provided an 1000 nM<IC50≤10000 nM; and compounds having an activity designated as “F” provided an IC50>10000 nM.

GRK5 = target: T2, GRK5 (Homo sapiens, UniProt P34947); assay: Lance Kinase Activity Assay, GRK5; conditions: biochemical Lance kinase activity assay; class symbols A-F; read-out: GRK5 LANCE Assay (IC-50)
T2 construct: purchased Thermo Scientific
Protocol: as §1, §2, §3, §4, §5

T2 sequence (P34947 whole entry): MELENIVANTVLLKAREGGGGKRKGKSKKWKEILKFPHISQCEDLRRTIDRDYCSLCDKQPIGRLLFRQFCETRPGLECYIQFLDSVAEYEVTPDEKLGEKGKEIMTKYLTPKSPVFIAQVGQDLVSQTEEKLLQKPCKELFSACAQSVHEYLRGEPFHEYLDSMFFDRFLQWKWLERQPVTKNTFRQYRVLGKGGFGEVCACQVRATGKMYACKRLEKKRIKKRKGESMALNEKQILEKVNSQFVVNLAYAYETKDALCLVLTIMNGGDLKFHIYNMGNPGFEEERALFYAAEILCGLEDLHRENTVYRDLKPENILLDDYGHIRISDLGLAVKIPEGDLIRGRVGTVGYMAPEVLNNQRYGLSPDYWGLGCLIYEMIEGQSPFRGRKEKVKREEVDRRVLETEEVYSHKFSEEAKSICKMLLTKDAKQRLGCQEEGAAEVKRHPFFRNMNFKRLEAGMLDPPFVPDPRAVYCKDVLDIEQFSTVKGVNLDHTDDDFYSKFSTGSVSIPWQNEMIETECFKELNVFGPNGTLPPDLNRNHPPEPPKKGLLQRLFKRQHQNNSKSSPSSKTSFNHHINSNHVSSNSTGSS

IC50 (GRK2) [µM] | IC50 (GRK5) [µM] | SMILES
> 10 | 0.5 to 1 | COc1ccc([C@@H](C)NC(=O)/C=C/c2c[nH]c3ncc(-c4cncnc4)cc23)cc1OC [Example 207, (R,E)-N-(1-(3,4-dimethoxyphenyl)ethyl)-3-(5-(pyrimidin-5-yl)-1H-pyrrolo[2,3-b]pyridin-3-yl)acrylamide]
> 10 | 0.1 to 0.5 | CCN1CCN(S(=O)(=O)c2ccc(-c3cnc4[nH]cc(/C=C(\C#N)C(=O)N[C@H](C)c5ccc(OC)c(OC)c5)c4c3)cc2)CC1 [Example 121, (R,E)-2-cyano-N-(1-(3,4-dimethoxyphenyl)ethyl)-3-(5-(4-((4-ethylpiperazin-1-yl)sulfonyl)phenyl)-1H-pyrrolo[2,3-b]pyridin-3-yl)acrylamide]
> 10 | ≤ 0.05 | Cc1nn(C)c2cc([C@@H](C)NC(=O)/C(C#N)=C/c3c[nH]c4ncc(-c5cnn(C)c5)cc34)ccc12 [Example 261, (R,E)-2-cyano-N-(1-(1,3-dimethyl-1H-indazol-6-yl)ethyl)-3-(5-(1-methyl-1H-pyrazol-4-yl)-1H-pyrrolo[2,3-b]pyridin-3-yl)acrylamide]
> 10 | 0.05 to 0.1 | COc1cc(C(C)NC(=O)/C=C/c2c[nH]c3ncc(-c4cnn(C)c4)cc23)cnc1OC (stereo not drawn) [Example 265, (E)-N-(1-(5,6-dimethoxypyridin-3-yl)ethyl)-3-(5-(1-methyl-1H-pyrazol-4-yl)-1H-pyrrolo[2,3-b]pyridin-3-yl)acrylamide]
0.1 to 0.5 | 0.1 to 0.5 | CCN(CC)CCC(NC(=O)/C(C#N)=C/c1c[nH]c2ncccc12)c1ccccc1 (stereo not drawn) [Example 52, (E)-2-cyano-N-(3-(diethylamino)-1-phenylpropyl)-3-(1H-pyrrolo[2,3-b]pyridin-3-yl)acrylamide]
1 to 10 | 0.1 to 0.5 | C[C@@H](NC(=O)/C(C#N)=C/c1c[nH]c2ncc(-c3ccccc3)cc12)c1ccc(F)cc1 [Example 179]
> 10 | 0.1 to 0.5 | COc1ccc([C@@H](C)NC(=O)/C(C#N)=C/c2c[nH]c3ncc(-c4cnn(Cc5ccccc5)c4)cc23)cc1OC [Example 159]
1 to 10 | 0.5 to 1 | N#C/C(=C\c1c[nH]c2ncccc12)C(=O)N[C@@H](c1ccccc1)C(F)(F)F [Example 14, (S,E)-2-cyano-3-(1H-pyrrolo[2,3-b]pyridin-3-yl)-N-(2,2,2-trifluoro-1-phenylethyl)acrylamide]
> 10 | 0.1 to 0.5 | COc1ccc([C@@H](C)NC(=O)/C=C/c2c[nH]c3nccc(-c4cnn5ccccc45)c23)cc1OC [Example 242, (R,E)-N-(1-(3,4-dimethoxyphenyl)ethyl)-3-(4-(pyrazolo[1,5-a]pyridin-3-yl)-1H-pyrrolo[2,3-b]pyridin-3-yl)acrylamide]
1 to 10 | ≤ 0.05 | COc1ccc([C@@H](C)NC(=O)/C(C#N)=C/c2c[nH]c3ncc(-c4ccncc4)cc23)cc1OC [Example 143]
1 to 10 | ≤ 0.05 | COc1ccc([C@@H](C)NC(=O)/C(C#N)=C/c2c[nH]c3ncc(OC4CCOCC4)cc23)cc1OC [Example 111, (R,E)-2-cyano-N-(1-(3,4-dimethoxyphenyl)ethyl)-3-(5-((tetrahydro-2H-pyran-4-yl)oxy)-1H-pyrrolo[2,3-b]pyridin-3-yl)acrylamide]
> 10 | ≤ 0.05 | COc1cccc(-c2cnc3[nH]cc(/C=C(\C#N)C(=O)N[C@H](C)c4ccc(OC)c(OC)c4)c3c2)c1 [Example 137, (R,E)-2-cyano-N-(1-(3,4-dimethoxyphenyl)ethyl)-3-(5-(3-methoxyphenyl)-1H-pyrrolo[2,3-b]pyridin-3-yl)acrylamide]
> 10 | ≤ 0.05 | COc1ccc([C@@H](C)NC(=O)/C(C#N)=C/c2c[nH]c3ncc(-c4cnn(CC(C)C)c4)cc23)cc1OC [Example 161, (R,E)-2-cyano-N-(1-(3,4-dimethoxyphenyl)ethyl)-3-(5-(1-isobutyl-1H-pyrazol-4-yl)-1H-pyrrolo[2,3-b]pyridin-3-yl)acrylamide]
1 to 10 | 0.1 to 0.5 | COc1ccc([C@@H](C)NC(=O)/C(C#N)=C/c2c[nH]c3ncccc23)cc1 [Example 19, (R,E)-2-cyano-N-(1-(4-methoxyphenyl)ethyl)-3-(1H-pyrrolo[2,3-b]pyridin-3-yl)acrylamide]
0.5 to 1 | 0.1 to 0.5 | C[C@@H](NC(=O)/C(C#N)=C/c1c[nH]c2ncccc12)c1ccccc1Cl [Example 12, (R,E)-N-(1-(2-chlorophenyl)ethyl)-2-cyano-3-(1H-pyrrolo[2,3-b]pyridin-3-yl)acrylamide]
> 10 | ≤ 0.05 | COc1ccc([C@@H](C)NC(=O)/C=C/c2c[nH]c3ncc(-c4cccc(S(=O)(=O)C(F)(F)F)c4)cc23)cc1OC [Example 264, (R,E)-N-(1-(3,4-dimethoxyphenyl)ethyl)-3-(5-(3-((trifluoromethyl)sulfonyl)phenyl)-1H-pyrrolo[2,3-b]pyridin-3-yl)acrylamide]
> 10 | ≤ 0.05 | COc1ccc([C@@H](C)NC(=O)/C(C#N)=C/c2c[nH]c3ncc(-c4cccnc4)cc23)cc1OC [Example 130]
≤ 0.05 | ≤ 0.05 | COc1cccc([C@@H](C)NC(=O)/C(C#N)=C/c2c[nH]c3ncccc23)c1 [Example 33, (R,E)-2-cyano-N-(1-(3-methoxyphenyl)ethyl)-3-(1H-pyrrolo[2,3-b]pyridin-3-yl)acrylamide]
1 to 10 | ≤ 0.05 | COc1ccc([C@@H](C)NC(=O)/C(C#N)=C/c2c[nH]c3ncc(-c4cccc(S(=O)(=O)N(C)C)c4)cc23)cc1OC [Example 149]
1 to 10 | ≤ 0.05 | COc1ccc([C@@H](C)NC(=O)/C(C#N)=C/c2c[nH]c3nccc(-c4ccc(N5CCN(C)CC5)cc4)c23)cc1OC [Example 171, (R,E)-2-cyano-N-(1-(3,4-dimethoxyphenyl)ethyl)-3-(4-(4-(4-methylpiperazin-1-yl)phenyl)-1H-pyrrolo[2,3-b]pyridin-3-yl)acrylamide]
1 to 10 | 0.5 to 1 | Cc1c(-c2cnn(C)c2)cnc2[nH]cc(/C=C(\C#N)C(=O)N[C@H](C)c3ccc(Cl)cc3)c12 [Example 100, (R,E)-N-(1-(4-chlorophenyl)ethyl)-2-cyano-3-(4-methyl-5-(1-methyl-1H-pyrazol-4-yl)-1H-pyrrolo[2,3-b]pyridin-3-yl)acrylamide]
1 to 10 | ≤ 0.05 | COc1ccc([C@@H](CO)NC(=O)/C=C/c2c[nH]c3ncc(C)cc23)cc1OC [Example 53, (S,E)-N-(1-(3,4-dimethoxyphenyl)-2-hydroxyethyl)-3-(5-methyl-1H-pyrrolo[2,3-b]pyridin-3-yl)acrylamide]
> 10 | 0.1 to 0.5 | COc1cc(C(C)NC(=O)/C=C/c2c[nH]c3ncc(-c4cnn(C)c4)cc23)ccc1[S+](C)[O-] (stereo not drawn) [Example 255, (E)-N-(1-(3-methoxy-4-(methylsulfinyl)phenyl)ethyl)-3-(5-(1-methyl-1H-pyrazol-4-yl)-1H-pyrrolo[2,3-b]pyridin-3-yl)acrylamide]
1 to 10 | ≤ 0.05 | COc1ccc([C@@H](C)NC(=O)/C(C#N)=C/c2c[nH]c3ncc(O)cc23)cc1OC [Example 81, (R,E)-2-cyano-N-(1-(3,4-dimethoxyphenyl)ethyl)-3-(5-hydroxy-1H-pyrrolo[2,3-b]pyridin-3-yl)acrylamide]
